Assay results taken from PubChem BioAssay AID256 (DTP/NCI, 2004).
Values joined by “and” are separate entries in the source; they are usually repeats but may differ in a detail not shown here. Identical values can stand only once. Inconclusive results and toxic doses are left out. How the source made its calls: active means survival T/C of 150% or more; inactive means T/C below 125% in these data.

Test system: CD2F1 mice, L1210 leukemia ip, survival T/C
Assay: NCI In Vivo Anticancer Drug Screen. Data for tumor model L1210 Leukemia (intraperitoneal) in CD2F1 (CDF1) mice
Conditions: higher = longer survival
Procedure, shortened: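 Transplantable tumor in mice; compound-treated vs vehicle-treated groups. Read-out = treated/control ratio of the measured endpoint.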

[1] = endpoint: mean survival time, dose: 100.0 mg/kg/injection, schedule: Q01DX001 (ip), vehicle: saline with Tween-80
[2] = endpoint: mean survival time, dose: 100.0 mg/kg/injection, schedule: Q04DX002 (ip), vehicle: saline with Tween-80
[3] = endpoint: mean survival time, dose: 200.0 mg/kg/injection, schedule: Q01DX001 (ip), vehicle: saline with Tween-80
[4] = endpoint: mean survival time, dose: 200.0 mg/kg/injection, schedule: Q04DX002 (ip), vehicle: saline with Tween-80
[5] = endpoint: mean survival time, dose: 400.0 mg/kg/injection, schedule: Q01DX001 (ip), vehicle: saline with Tween-80
[6] = endpoint: mean survival time, dose: 400.0 mg/kg/injection, schedule: Q04DX002 (ip), vehicle: saline with Tween-80
[7] = endpoint: mean survival time, dose: 50.0 mg/kg/injection, schedule: Q01DX009 (ip), vehicle: saline with Tween-80
[8] = endpoint: mean survival time, dose: 100.0 mg/kg/injection, schedule: Q01DX009 (ip), vehicle: saline with Tween-80
[9] = endpoint: mean survival time, dose: 200.0 mg/kg/injection, schedule: Q01DX009 (ip), vehicle: saline with Tween-80
[10] = endpoint: mean survival time, dose: 400.0 mg/kg/injection, schedule: Q01DX009 (ip), vehicle: saline with Tween-80
[11] = endpoint: mean survival time, dose: 100.0 mg/kg/injection, schedule: Q01DX001 (ip), vehicle: saline
[12] = endpoint: mean survival time, dose: 200.0 mg/kg/injection, schedule: Q01DX001 (ip), vehicle: saline
[13] = endpoint: mean survival time, dose: 400.0 mg/kg/injection, schedule: Q01DX001 (ip), vehicle: saline
[14] = endpoint: mean survival time, dose: 25.0 mg/kg/injection, schedule: Q01DX001 (ip), vehicle: saline with Tween-80
[15] = endpoint: mean survival time, dose: 100.0 mg/kg/injection, schedule: Q04DX003 (ip), vehicle: saline with Tween-80
[16] = endpoint: mean survival time, dose: 200.0 mg/kg/injection, schedule: Q04DX003 (ip), vehicle: saline with Tween-80
[17] = endpoint: mean survival time, dose: 400.0 mg/kg/injection, schedule: Q04DX003 (ip), vehicle: saline with Tween-80

Measured: T/C

CCOC(=O)c1[nH]c(C)c(C(=O)OCC)c1C
inactive: endpoint: mean survival time, dose: 100.0 mg/kg/injection, schedule: Q04DX003 (ip), vehicle: Klucel (hydroxypropylcellulose) (HPC) 103 % of control | endpoint: mean survival time, dose: 200.0 mg/kg/injection, schedule: Q04DX003 (ip), vehicle: Klucel (hydroxypropylcellulose) (HPC) 103 % of control | endpoint: mean survival time, dose: 400.0 mg/kg/injection, schedule: Q04DX003 (ip), vehicle: Klucel (hydroxypropylcellulose) (HPC) 95 % of control

CCOC(=O)C/C(C)=C/c1ccccc1 (tested in a mixture with another compound)
inactive: [1] 95 % of control | [2] 98 % of control | [3] 87 % of control | [4] 90 % of control | [5] 94 % of control | [6] 110 % of control

C=CC/C=C/CCCCCC
inactive: [7] 114 % of control | [8] 96 % of control | [9] 107 % of control

CC(=O)/C=C/C=C\c1ccccc1
inactive: [8] 104 % of control | [9] 94 % of control | [10] 98 % of control

C[Si](C)(C)OSc1ccccc1[N+](=O)[O-]
inactive: endpoint: mean survival time, dose: 12.5 mg/kg/injection, schedule: Q01DX009 (ip), vehicle: Klucel (hydroxypropylcellulose) (HPC) 95 % of control | endpoint: mean survival time, dose: 25.0 mg/kg/injection, schedule: Q01DX009 (ip), vehicle: Klucel (hydroxypropylcellulose) (HPC) 97 % of control | endpoint: mean survival time, dose: 50.0 mg/kg/injection, schedule: Q01DX009 (ip), vehicle: Klucel (hydroxypropylcellulose) (HPC) 100 % of control | endpoint: mean survival time, dose: 100.0 mg/kg/injection, schedule: Q01DX009 (ip), vehicle: Klucel (hydroxypropylcellulose) (HPC) 93 % of control | endpoint: mean survival time, dose: 200.0 mg/kg/injection, schedule: Q01DX009 (ip), vehicle: Klucel (hydroxypropylcellulose) (HPC) 92 % of control | endpoint: mean survival time, dose: 400.0 mg/kg/injection, schedule: Q01DX009 (ip), vehicle: Klucel (hydroxypropylcellulose) (HPC) 91 % of control

c1ccc(Cc2ccccn2)nc1
inactive: endpoint: mean survival time, dose: 100.0 mg/kg/injection, schedule: Q01DX009 (ip), vehicle: saline 110 % of control | endpoint: mean survival time, dose: 200.0 mg/kg/injection, schedule: Q01DX009 (ip), vehicle: saline 101 % of control | endpoint: mean survival time, dose: 400.0 mg/kg/injection, schedule: Q01DX009 (ip), vehicle: saline 90 % of control

CC1C(OC(=O)CCl)CCC2C1(C)CCC1C2(C)CCC2(C)C3CC(C)(C)CCC3(C)CCC12C (centres undefined)
inactive: [11] 97 % of control | [12] 97 % of control | [13] 97 % of control

Cc1c2ccccc2cc2c1ccc1ccccc12
inactive: endpoint: mean survival time, dose: 9.0 mg/kg/injection, schedule: Q01DX009 (ip), vehicle: saline with Tween-80 106 % of control | endpoint: mean survival time, dose: 17.5 mg/kg/injection, schedule: Q01DX009 (ip), vehicle: saline with Tween-80 108 % of control | endpoint: mean survival time, dose: 35.0 mg/kg/injection, schedule: Q01DX009 (ip), vehicle: saline with Tween-80 108 % of control | endpoint: mean survival time, dose: 70.0 mg/kg/injection, schedule: Q01DX009 (ip), vehicle: saline with Tween-80 103 % of control

CC(=O)OCC(C)CCC(=O)C(C)C1C(=O)CC2C3CC=C4CC(OC(C)=O)CCC4(C)C3CCC21C (centres undefined)
inactive: [8] 100 % of control | [9] 97 % of control | [10] 91 % of control

N#C[Se]CC[Se]C#N
inactive: endpoint: mean survival time, dose: 6.25 mg/kg/injection, schedule: Q01DX001 (ip), vehicle: saline with Tween-80 94 % of control | endpoint: mean survival time, dose: 12.5 mg/kg/injection, schedule: Q01DX001 (ip), vehicle: saline with Tween-80 98 % of control | [14] 103 % of control

CCC[CH2][Sn]([CH2]CC)([CH2]CCC)[O]C(=O)c1ccccc1
inactive: endpoint: mean survival time, dose: 0.78 mg/kg/injection, schedule: Q01DX009 (ip), vehicle: saline with Tween-80 104 % of control | endpoint: mean survival time, dose: 1.56 mg/kg/injection, schedule: Q01DX009 (ip), vehicle: saline with Tween-80 107 % of control

O=C(c1ccc(-c2ccccc2)cc1)C1C(c2ccccc2)N1C1CCCCC1 (centres undefined)
inactive: endpoint: mean survival time, dose: 12.5 mg/kg/injection, schedule: Q01DX009 (ip), vehicle: other 102 % of control and 96 % of control | endpoint: mean survival time, dose: 25.0 mg/kg/injection, schedule: Q01DX001 (ip), vehicle: water 96 % of control and 98 % of control | endpoint: mean survival time, dose: 25.0 mg/kg/injection, schedule: Q01DX009 (ip), vehicle: other 96 % of control and 97 % of control | endpoint: mean survival time, dose: 50.0 mg/kg/injection, schedule: Q01DX001 (ip), vehicle: water 88 % of control and 90 % of control | endpoint: mean survival time, dose: 50.0 mg/kg/injection, schedule: Q01DX009 (ip), vehicle: other 102 % of control and 88 % of control | endpoint: mean survival time, dose: 100.0 mg/kg/injection, schedule: Q01DX001 (ip), vehicle: water 95 % of control and 101 % of control | endpoint: mean survival time, dose: 100.0 mg/kg/injection, schedule: Q01DX009 (ip), vehicle: other 86 % of control and 97 % of control | endpoint: mean survival time, dose: 200.0 mg/kg/injection, schedule: Q01DX001 (ip), vehicle: water 90 % of control and 92 % of control | endpoint: mean survival time, dose: 200.0 mg/kg/injection, schedule: Q01DX009 (ip), vehicle: other 94 % of control | endpoint: mean survival time, dose: 400.0 mg/kg/injection, schedule: Q01DX001 (ip), vehicle: water 92 % of control

C[C@@H]1CC2=CC(=O)CC[C@]2(C)[C@H]2CC[C@]3(C)[C@@H](O)CC[C@H]3[C@H]12
inactive: [15] 98 % of control | [16] 119 % of control | [17] 98 % of control

O=C(O)C1OC(C(=O)O)C(C(=O)O)C1C(=O)O (centres undefined)
inactive: endpoint: mean survival time, dose: 75.0 mg/kg/injection, schedule: Q01DX001 (ip), vehicle: other 100 % of control | endpoint: mean survival time, dose: 150.0 mg/kg/injection, schedule: Q01DX001 (ip), vehicle: other 100 % of control | endpoint: mean survival time, dose: 300.0 mg/kg/injection, schedule: Q01DX001 (ip), vehicle: other 95 % of control

Cc1ccc(SCc2c(COc3ccc(Cl)cc3)sc3ccc(Cl)cc23)cc1
inactive: [15] 92 % of control | [16] 92 % of control | [17] 94 % of control

CC(C)c1cc(C(C)C)c(S(=O)(=O)OCC2OC(OC3(COS(=O)(=O)c4c(C(C)C)cc(C(C)C)cc4C(C)C)OC(COS(=O)(=O)c4c(C(C)C)cc(C(C)C)cc4C(C)C)C(O)C3O)C(O)C(O)C2O)c(C(C)C)c1 (centres undefined)
inactive: [7] 98 % of control | [8] 95 % of control | [9] 102 % of control

O=C(Cl)CCc1ccnc2ccccc12
inactive: endpoint: mean survival time, dose: 100.0 mg/kg/injection, schedule: Q04DX003 (ip), vehicle: saline 95 % of control | endpoint: mean survival time, dose: 200.0 mg/kg/injection, schedule: Q04DX003 (ip), vehicle: saline 101 % of control | endpoint: mean survival time, dose: 400.0 mg/kg/injection, schedule: Q04DX003 (ip), vehicle: saline 113 % of control

CC1=COC(Cc2ccc(Cl)cc2)C(c2ccccc2)(c2ccccc2)C1=O (centres undefined)
inactive: endpoint: mean survival time, dose: 100.0 mg/kg/injection, schedule: Q01DX001 (ip), vehicle: saline sonified 105 % of control | [2] 89 % of control | endpoint: mean survival time, dose: 200.0 mg/kg/injection, schedule: Q01DX001 (ip), vehicle: saline sonified 94 % of control | [4] 89 % of control | endpoint: mean survival time, dose: 400.0 mg/kg/injection, schedule: Q01DX001 (ip), vehicle: saline sonified 90 % of control | [6] 89 % of control

C(#Cc1ccccc1)/C=C/C=C/c1ccccc1
inactive: [14] 95 % of control | endpoint: mean survival time, dose: 50.0 mg/kg/injection, schedule: Q01DX001 (ip), vehicle: saline with Tween-80 87 % of control | [1] 87 % of control and 89 % of control

COc1ccc2c(c1)C1(C)CCC(=O)C(C)C1CC2 (centres undefined)
inactive: [11] 94 % of control | [12] 96 % of control | [13] 96 % of control

NS(=O)(=O)c1ccc(NC(=O)Oc2ccc([N+](=O)[O-])cc2)cc1
inactive: [1] 93 % of control | [3] 93 % of control | [5] 101 % of control

COc1nc(NC2OC(CO)C(O)C(O)C2O)c(C(C)=O)c(=O)n1C (centres undefined)
inactive: endpoint: median survival time, dose: 12.5 mg/kg/injection, schedule: Q01DX005 (ip), vehicle: saline with Tween-80 94 % of control | endpoint: median survival time, dose: 25.0 mg/kg/injection, schedule: Q01DX005 (ip), vehicle: saline with Tween-80 98 % of control | endpoint: median survival time, dose: 50.0 mg/kg/injection, schedule: Q01DX005 (ip), vehicle: saline with Tween-80 100 % of control | endpoint: median survival time, dose: 100.0 mg/kg/injection, schedule: Q01DX005 (ip), vehicle: saline with Tween-80 97 % of control | endpoint: median survival time, dose: 200.0 mg/kg/injection, schedule: Q01DX005 (ip), vehicle: saline with Tween-80 98 % of control
